Assay results taken from patent publication US20240284907A1, “NOVEL DERIVATIVES OF NON-CODED AMINO ACIDS AND THEIR USE AS HERBICIDES” (FortePhest LTD., priority 2021, published 2024).

How the values were obtained:
Format in all cases: in vivo
[1] = system: Seeds of Lettuce R. (Super-Jericho); test: Filter paper bioassay with lettuce seeds: germination and early plant development, Minimal Effective Concentration (MEC); conditions: lettuce seeds on filter paper, 0 to 1 mmol/l, visually assessed after 6 days
Outline: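 Visual scoring on day 6 of radicle and shoot growth gives the MEC, the lowest dose deviating from control (no germination or malformation). Seeds (lettuce Super-Jericho, 10 per plate) sat on filter paper with 0–1 mmol/l aqueous compound, 48 h dark then 4 days 6/18 dark/light, in at least two repeats.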

[2] = system: Romaine lettuce (Lactuca sativa L.) plants; test: Post-emergence herbicidal activity on potted Romaine lettuce plants (soil or foliar application); conditions: lettuce at 2 to 3 leaves, two weeks after treatment
Procedure: The tests were performed on Romaine lettuce (Lactuca sativa L.) plants at the stage 2 to 3 leaves. The plants were grown in mini-pots packed with soil, dimensions 2×2×5 cm, one plant per mini-pot. Test compounds were dissolved in 0.1% aqueous solution water solution of Silwet adjuvant to final concentrations ranging from 0 (Control) to 0.0001%. The test compounds were applied on soil (1 ml per pot) or foliar with airbrush (0.1 ml per pot). Each concentration was tested on 20 plants. Two weeks after the treatment the herbicidal effects of the respective test material were visually evaluated (aboveground part and roots. Then the aboveground part of the plants was neatly cut and weighed (wet weight) to assess the growth inhibition caused by the test compound. The growth inhibition (GI) was calculated as following: […]
Where Mt and Mc are median wet weight of treated and control plants, respectively. In the context of the invention, the herbicidal effect was assessed by concentration of the compound causing more than 85% of Growth Inhibition (GI) or irreversible damage of the plants (Table 3). Herbicidal activity of selected DHAAs is summarized in Table 4 (soil application) and Table 5 (Foliar application).

[3] = system: Seeds of Lettuce R. (Super-Jericho); test: Filter paper bioassay with lettuce seeds: germination, Fully Effective Concentration (FEC); conditions: lowest concentration mostly preventing lettuce seed germination, assessed after 6 days
Description: Materials: Seeds of Lettuce R. (Super-Jericho, non-sterilized) were obtained from Ben Shahar Moshe Ltd., 99% purity. The test compounds listed in the Table 2 below were synthetized de novo or purchased from different vendors.
Filter Paper Bioassays with Lettuce seeds: The protocol is following Bertin et al. 2009 and Movellan et al. 2014 with specified modifications as described below.
Seeds were placed on Whatman no. 1 filter paper (Whatman, Middlesex, U.K.) in Petri dishes (10 seeds per plate) with 2.0 ml of aqueous solution of a test material in concentration ranged from 0 (control) to 1 mmol/l were placed in a tray tilted at 45°. The trays were kept in dark for 48 hours and then transferred to the growth chamber with 6/18 dark/light cycle for 4 days. Each experiment was performed at least with two repeats.
The development of plants' radicle and shoots were visually assessed 6 days after the beginning of the test to determine Fully Effective Concentration (FEC) of a test material. In the context of the invention, FED is defined as the lowest concentration level of a test material that mostly preventing seeds germination.

## 2,5,8,11,14-pentaoxahexadecan-16-yl 2-(2-chloro-1,3-thiazol-4-yl)-2,2-difluoroacetate [compound 5778]
[1]
  Score (activity score of Minimal Effective Concentration, MEC): very strong
[2]; foliar application
  Score (test material causing more than 85% of Growth Inhibition or irreversible plant damage): moderate (0.5)
[3]
  FEC (Fully Effective Concentration): 5.000 mM

## 2-(2-bromo-1,3-thiazol-4-yl)-2,2-difluoroacetic acid [compound 5730]
[1]
  Score (activity score of Minimal Effective Concentration, MEC): very strong
[2]; foliar application
  Score (test material causing more than 85% of Growth Inhibition or irreversible plant damage): strong (0.01 to 0.05)
[2]; soil application
  Score (test material causing more than 85% of Growth Inhibition or irreversible plant damage): strong (0.01 to 0.05)
[3]
  FEC (Fully Effective Concentration): 0.010 mM

## 2-(2-methoxyethoxy)ethyl(2-chloro-1,3-thiazol-4-yl)(difluoro)acetate [compound 5746]
[1]
  Score (activity score of Minimal Effective Concentration, MEC): very strong
[2]; foliar application
  Score (test material causing more than 85% of Growth Inhibition or irreversible plant damage): strong (0.01 to 0.05)
[2]; soil application
  Score (test material causing more than 85% of Growth Inhibition or irreversible plant damage): strong (0.01 to 0.05)
[3]
  FEC (Fully Effective Concentration): 0.001 mM

## 2-(2-methoxyethoxy)ethyl(2-chloro-1,3-thiazol-4-yl)(difluoro)acetate [compound 5771]
[1]
  Score (activity score of Minimal Effective Concentration, MEC): very strong
[2]; foliar application
  Score (test material causing more than 85% of Growth Inhibition or irreversible plant damage): strong (0.01 to 0.05)
[3]
  FEC (Fully Effective Concentration): 0.050 mM

## 2-(4-methylphenyl)-2-oxoethyl(2-chloro-1,3-thiazol-4-yl)(difluoro)acetate [compound 5738]
[1]
  Score (activity score of Minimal Effective Concentration, MEC): very strong
[2]; foliar application
  Score (test material causing more than 85% of Growth Inhibition or irreversible plant damage): moderate (0.5)
[2]; soil application
  Score (test material causing more than 85% of Growth Inhibition or irreversible plant damage): strong (0.01 to 0.05)
[3]
  FEC (Fully Effective Concentration): 0.010 mM

## 3-(2-chlorothiophen-3-yl)-3,3-difluoro-2-hydroxypropanenitrile [compound 5761]
[1]
  Score (activity score of Minimal Effective Concentration, MEC): Strong (0.01 mM)
[2]; soil application
  Score (test material causing more than 85% of Growth Inhibition or irreversible plant damage): strong (0.01 to 0.05)
[3]
  FEC (Fully Effective Concentration): 0.100 mM

## NCCc1cc(Cl)sc1Cl [compound 584, 2-(2,5-dichlorothiophen-3-yl) ethan-1-amine]
[1]
  Score (activity score of Minimal Effective Concentration, MEC): moderate
[2]; soil application
  Score (test material causing more than 85% of Growth Inhibition or irreversible plant damage): weak (1.0)
[3]
  FEC (Fully Effective Concentration): 0.500 mM

## NCCCCc1cc(Cl)sc1Cl [compound 5657, 4-(2,5-dichlorothiophen-3-yl)butan-1-amine]
[1]
  Score (activity score of Minimal Effective Concentration, MEC): Moderate (0.1 mM)
[3]
  FEC (Fully Effective Concentration): 0.100 mM

## O=C(OCc1ccccc1)C(F)(F)c1cc(Cl)sc1Cl [compound 5709, benzyl(2,5-dichlorothiophen-3-yl)(difluoro)acetate]
[1]
  Score (activity score of Minimal Effective Concentration, MEC): very strong
[2]; foliar application
  Score (test material causing more than 85% of Growth Inhibition or irreversible plant damage): moderate (0.5)
[3]
  FEC (Fully Effective Concentration): 0.100 mM

## Cc1sc(C(F)(F)F)nc1C(F)(F)C(=O)O [compound 5717, 2,2-difluoro-2-[5-methyl-2-(trifluoromethyl)-1,3-thiazol-4-yl]acetic acid]
[1]
  Score (activity score of Minimal Effective Concentration, MEC): Strong (0.01 mM)
[3]
  FEC (Fully Effective Concentration): 0.100 mM

## O=C(O)C(F)(F)c1ccsc1C(F)(F)F [compound 5728, difluoro[2-(trifluoromethyl)thiophen-3-yl]acetic acid]
[1]
  Score (activity score of Minimal Effective Concentration, MEC): Strong (0.01 mM)
[2]; foliar application
  Score (test material causing more than 85% of Growth Inhibition or irreversible plant damage): strong (0.01 to 0.05)
[2]; soil application
  Score (test material causing more than 85% of Growth Inhibition or irreversible plant damage): strong (0.01 to 0.05)
[3]
  FEC (Fully Effective Concentration): 1.000 mM

## O=C(O)C(F)(F)c1nc(Cl)sc1F [compound 5751, (2-chloro-5-fluoro-1,3-thiazol-4-yl)(difluoro)acetic acid]
[1]
  Score (activity score of Minimal Effective Concentration, MEC): strong.strong
[3]
  FEC (Fully Effective Concentration): 0.100 mM

## O=C(Cc1ccc(Br)cc1)C(F)(F)c1csc(Cl)n1 [compound 5756, 3-(4-bromophenyl)-1-(2-chloro-1,3-thiazol-4-yl)-1,1-difluoropropan-2-one]
[1]
  Score (activity score of Minimal Effective Concentration, MEC): very strong
[3]
  FEC (Fully Effective Concentration): 0.010 mM

## O=C(Cc1csc(Cl)n1)OCc1ccccc1 [compound 5758, benzyl 2-(2-chloro-1,3-thiazol-4-yl)acetate]
[1]
  Score (activity score of Minimal Effective Concentration, MEC): Strong (0.01 mM)
[3]
  FEC (Fully Effective Concentration): 0.100 mM

## O=C(OCc1ccccc1)C(F)(F)c1csc(Cl)n1 [compound 5762, benzyl (2-chloro-1,3-thiazol-4-yl)(difluoro)acetate]
[1]
  Score (activity score of Minimal Effective Concentration, MEC): very strong
[3]
  FEC (Fully Effective Concentration): 0.010 mM

## NC(N)=NCCc1cc(Cl)sc1Cl [compound 5769, N″-[2-(2,5-dichlorothiophen-3-yl)ethyl]guanidine]
[1]
  Score (activity score of Minimal Effective Concentration, MEC): Strong (0.01 mM)
[3]
  FEC (Fully Effective Concentration): 0.100 mM

## N#Cc1cscc1C(F)(F)C(=O)O [compound 5779, (4-cyanothiophen-3-yl)(difluoro)acetic acid]
[1]
  Score (activity score of Minimal Effective Concentration, MEC): Strong (0.01 mM)
[3]
  FEC (Fully Effective Concentration): 1.000 mM

## (2-bromophenyl)methyl(2,5-dichlorothiophen-3-yl)(difluoro)acetate [compound 5747]
[1]
  Score (activity score of Minimal Effective Concentration, MEC): very strong
[2]; foliar application
  Score (test material causing more than 85% of Growth Inhibition or irreversible plant damage): moderate (0.5)
[2]; soil application
  Score (test material causing more than 85% of Growth Inhibition or irreversible plant damage): moderate (0.5)
[3]
  FEC (Fully Effective Concentration): 0.500 mM

## (2-bromophenyl)methyl(2,5-dichlorothiophen-3-yl)(difluoro)acetate [compound 5772]
[1]
  Score (activity score of Minimal Effective Concentration, MEC): Strong (0.01 mM)
[2]; foliar application
  Score (test material causing more than 85% of Growth Inhibition or irreversible plant damage): moderate (0.5)
[2]; soil application
  Score (test material causing more than 85% of Growth Inhibition or irreversible plant damage): strong (0.01 to 0.05)
[3]
  FEC (Fully Effective Concentration): 0.500 mM

## (4-bromophenyl)methyl(2,5-dichlorothiophen-3-yl)(difluoro)acetate [compound 5768]
[1]
  Score (activity score of Minimal Effective Concentration, MEC): Strong (0.01 mM)
[2]; foliar application
  Score (test material causing more than 85% of Growth Inhibition or irreversible plant damage): strong (0.01 to 0.05)
[2]; soil application
  Score (test material causing more than 85% of Growth Inhibition or irreversible plant damage): moderate (0.5)
[3]
  FEC (Fully Effective Concentration): 0.500 mM

## (4-bromophenyl)methyl(2,5-dichlorothiophen-3-yl)acetate [compound 5735]
[1]
  Score (activity score of Minimal Effective Concentration, MEC): strong.strong
[3]
  FEC (Fully Effective Concentration): 0.500 mM

## (6-bromopyridin-2-yl)methyl2-(2,5-dichlorothiophen-3-yl)-2,2-difluoroacetate [compound 5757]
[1]
  Score (activity score of Minimal Effective Concentration, MEC): Strong (0.01 mM)
[2]; soil application
  Score (test material causing more than 85% of Growth Inhibition or irreversible plant damage): strong (0.01 to 0.05)
[3]
  FEC (Fully Effective Concentration): 0.100 mM

## (6-bromopyridin-2-yl)methyl(2,5-dichlorothiophen-3-yl)acetate [compound 5759]
[1]
  Score (activity score of Minimal Effective Concentration, MEC): very strong
[2]; foliar application
  Score (test material causing more than 85% of Growth Inhibition or irreversible plant damage): strong (0.01 to 0.05)
[2]; soil application
  Score (test material causing more than 85% of Growth Inhibition or irreversible plant damage): strong (0.01 to 0.05)
[3]
  FEC (Fully Effective Concentration): 0.010 mM

## ethyl 2-(2-chloro-1,3-thiazol-4-yl)-2,2-difluoroacetate [compound 5784]
[1]
  Score (activity score of Minimal Effective Concentration, MEC): very strong
[3]
  FEC (Fully Effective Concentration): 0.050 mM
